Source: patent publication US9238631B2, “Radiolabeled amino acids for diagnostic imaging” (PIRAMAL IMAGING SA, priority 2011, dated 2016)

How the values were obtained:
NCI-H460 tumor [1] = test: PET imaging in NCI-H460 tumor bearing nude-rats; type: in vivo; settings: PET ROI analysis, 1 h p.i.
Procedure: c) Beside PET-imaging studies in mice, also the imaging properties of [^18F]-12 in rats were examined. NCI-H460 tumor cells were inoculated into the right flank of nude-rats (RH-Foxn1 nu/nu) 8 to 10 days before the PET study. PET images were acquired at 60 min after injection of approximately 10 MBq for 10 minutes. The H460 tumor was nicely visible (0.9% ID/g as determined by ROI analysis). Beside some minor uptake into the liver and kidneys due to the excretion of the compound, no uptake into other non-target tissues was observed.
To test the imaging properties, compounds from the present invention were evaluated in PET imaging studies using tumor bearing rats. NCI-H460 tumor cells were inoculated into the right flank of nude-rats (RH-Foxn1 nu/nu) 8 to 10 days before the PET study. PET images were acquired at 60 min after injection of approximately 10 MBq for 10 minutes. After the imaging study, region-of-interest (ROI) analysis was performed and activity in tumor, liver and kidney was determined. […] High tumor uptake values of >1% […] in this rat model were obtained with various compounds from the present invention. A favorable clearance profile of all compounds enables excellent tumor detection in PET imaging studies in tumor bearing rats.

NCI-H460 tumor [2] = test: In vivo biodistribution in NCI-H460 tumor bearing mice; settings: for T/Blood / T/Muscle: 1 h post injection
Procedure: (§1) To test the pharmacokinetic properties of compounds from the present invention, all F18-labeled compounds were examined by biodistribution studies in NCI-H460 tumor bearing mice. Female NMRI (nu/nu) mice were inoculated with 5×10^6 NCI-H460 tumor cells 8 to 10 days before the biodistribution studies. 185 kBq of activity of the fluorinated compound was injected and at least n=3 mice were used for every time point. After injection of the F18-labeled compound, mice were sacrificed at defined time-points. All organs were removed and radioactivity was determined using a γ-counter.
To compare the tumor uptake and retention of radioactivity of different ^18F-labeled derivatives from the present invention, biodistribution studies were performed in NCI-H460 tumor bearing NMRI (nu/nu) mice as described above.
To compare the kidney clearance of several ^18F-labeled derivatives from the present invention, biodistribution studies were performed in NCI-H460 tumor bearing female NMRI (nu/nu) mice as described above. […] After 2 h p.i., less than 1% ID/g can be found in the kidneys.
For comparison of pancreas uptake and clearance of several ^18F-labeled derivatives from the present invention, biodistribution studies were performed in NCI-H460 tumor bearing NMRI (nu/nu) mice as described above. […] After 2 h p.i., less than 2% ID/g can be found in the pancreas.
as §1, with “and” for “for every time point. After injection of the F18-labeled compound, mice were”, “time-points raning from 15 min pi up to 2 h p.i.” for “time-points.”, “γ-counter. […] High tumor uptake values of >3% ID/g were obtained with various compounds from the present invention.” for “γ-counter.”

[3] = test system: NCI-H460 (human NSCLC) cells; test: In vitro cell-uptake study: blocking of radiolabeled glutamate derivative uptake; type: cell-based; settings: compound 1 mM, 30 minutes, mean ± SD, without compound = 100%
Procedure: The ability of compounds from the present invention to compete with radiolabeled glutamate derivatives for uptake into tumor cells was examined. NCI-H460 (human NSCLC) cells, grown adherently in 48 well plates were used for these competition-experiments. Approximately 100.000 cells were co-incubated in PBS-buffer containing 0.1% BSA with a radiolabeled Glutamic acid derivative and several compounds, which were used at a concentration of 1 mM for 30 minutes. After this time, the cell bound radioactivity was determined.

SMILES	Kidney (% ID/g at 1 h p.i.) (NCI-H460 tumor [1])	Liver (% ID/g at 1 h p.i.) (NCI-H460 tumor [1])	Tumor (Max % ID/g at 1 h p.i.) (NCI-H460 tumor [1])	Tumor (Mean % ID/g at 1 h p.i.) (NCI-H460 tumor [1])	Kidney (% ID/g at 1 h p.i.) (NCI-H460 tumor [2])	Liver (% ID/g at 1 h p.i.) (NCI-H460 tumor [2])	Pancreas (% ID/g at 1 h p.i.) (NCI-H460 tumor [2])	Tumor (% ID/g at 1 h p.i.) (NCI-H460 tumor [2])	Urine (% ID at 1 h p.i.) (NCI-H460 tumor [2])	T/Blood (NCI-H460 tumor [2])	T/Muscle (NCI-H460 tumor [2])	Uptake of radiolabeled glutamate-derivative (% of control) [3]	tumor uptake and retention (summary statement) (NCI-H460 tumor [2]; mouse, in vivo)
N[C@@H](CCC(Cc1ccc(OC[18F])cc1)C(=O)O)C(=O)O (single isomer, unassigned) [[^18F]-41 C5-1]	0.5 % ID/g	0.4 % ID/g	3.2 % ID/g	1.2 % ID/g	3.5 ± 0.7 % ID/g	0.3 ± 0.1 % ID/g	2.2 ± 0.3 % ID/g	6.4 ± 1.4 % ID/g	85.0 ± 7.7 % ID	23.4	94.2	–	–
N[C@@H](CCC(Cc1ccc(OC[18F])cc1)C(=O)O)C(=O)O (single isomer, unassigned) [[^18F]-41 C5-2]	0.2 % ID/g	0.2 % ID/g	4.4 % ID/g	2.0 % ID/g	2.4 ± 0.8 % ID/g	0.3 ± 0.1 % ID/g	1.1 ± 0.2 % ID/g	8.7 ± 1.9 % ID/g	83.5 ± 5.1 % ID	36.0	107.3	–	–
N[C@@H](C[C@H](Cc1ccc(OCCF)cc1)C(=O)O)C(=O)O [Example 1, (4S)-4-[4-(2-Fluoroethoxy)benzyl]-L-glutamic acid]	–	–	–	–	–	–	–	–	–	–	–	5.0 ± 0.2 % of control	–
N[C@@H](CCC(Cc1ccc(OCC[18F])cc1)C(=O)O)C(=O)O (stereo partly drawn) [[^18F]-12 C5-1] [(2S)-2-amino-5-[4-([^18F]fluoroethoxy)benzyl]hexanedioic acid]	0.8 % ID/g	1.2 % ID/g	3.4 % ID/g	1.3 % ID/g	–	–	–	–	–	–	–	–	–
N[C@@H](CCC(Cc1ccc(OCC[18F])cc1)C(=O)O)C(=O)O (stereo partly drawn) [[^18F]-12 C5-2] [(2S)-2-amino-5-[4-(fluoroethoxy)benzyl]hexanedioic acid]	0.4 % ID/g	0.5 % ID/g	3.7 % ID/g	1.6 % ID/g	–	–	–	–	–	–	–	–	–
N[C@H](CCC(Cc1ccc(OCC[18F])cc1)C(=O)O)C(=O)O (stereo partly drawn) [[^18F]-16, (2R)-2-Amino-5-[4-(2-[^18F]fluoroethoxy)benzyl]hexanedioic acid]	1.7 % ID/g	2.3 % ID/g	2.1 % ID/g	0.8 % ID/g	3.4 ± 0.3 % ID/g	3.3 ± 0.1 % ID/g	1.4 ± 0.1 % ID/g	3.6 ± 0.6 % ID/g	74.5 ± 6.8 % ID	14.1	54.2	–	–
N[C@@H](CC(Cc1ccc(OCC[18F])cn1)C(=O)O)C(=O)O (stereo partly shown) [[^18F]-17]	2.4 % ID/g	0.9 % ID/g	2.6 % ID/g	1.2 % ID/g	–	–	–	–	–	–	–	–	–
N[C@@H](CCC(Cc1ccc(OCC[18F])cn1)C(=O)O)C(=O)O (stereo partly drawn) [[^18F]-32, (2S)-2-Amino-5-{[5-(2-[^18F]fluoroethoxy)pyridin-2-yl]methyl}hexanedioic acid]	–	–	–	–	3.9 ± 1.0 % ID/g	2.3 ± 0.2 % ID/g	0.7 ± 0.1 % ID/g	2.3 ± 0.9 % ID/g	81.0 ± 7.5 % ID	17.9	23.5	–	–
N[C@@H](CC(Cc1ccc(OCC[18F])c[n+]1[O-])C(=O)O)C(=O)O (stereo partly drawn) [[^18F]-35, 4-{[5-(2-[^18F]fluoroethoxy)-1-oxidopyridin-2-yl]methyl}-L-glutamic acid]	3.1 % ID/g	0.2 % ID/g	0.5 % ID/g	0.2 % ID/g	–	–	–	–	–	–	–	–	–
N[C@@H](CC(Cc1ccc(OCC[18F])c(O)c1)C(=O)O)C(=O)O (stereo partly drawn) [[^18F]-44, 4-[4-(2-[^18F]fluoroethoxy)-3-hydroxybenzyl]-L-glutamic acid]	–	–	–	–	2.5 ± 0.7 % ID/g	0.95 ± 0.1 % ID/g	1.2 ± 0.1 % ID/g	3.3 ± 1.2 % ID/g	80.6 ± 10.1 % ID	28.2	71.1	–	–
N[C@@H](C[C@H](Cc1ccc(OC[18F])cc1)C(=O)O)C(=O)O [[^18F]-48, (4S)-4-{4-[(^18F)fluoromethoxy]benzyl}-L-glutamic acid]	0.9 % ID/g	0.2 % ID/g	1.6 % ID/g	0.8 % ID/g	1.8 ± 0.4 % ID/g	0.2 ± 0.08 % ID/g	0.8 ± 0.1 % ID/g	2.8 ± 1.4 % ID/g	79 ± 7.8 % ID	23.3	30.4	–	–
N[C@@H](C[C@@H](Cc1ccc(OC[18F])cc1)C(=O)O)C(=O)O [[^18F]-50, (4R)-4-{4-[(^18F)fluoromethoxy]benzyl}-L-glutamic acid]	1.0 % ID/g	0.2 % ID/g	2.4 % ID/g	1.1 % ID/g	–	–	–	–	–	–	–	–	–
N[C@@H](CCC(Cc1ccc(NCC[18F])cc1)C(=O)O)C(=O)O (stereo partly drawn) [[^18F]-52, (2S)-2-amino-5-(4-{[2-(^18F)fluoroethyl]amino}benzyl)hexanedioic acid]	–	–	–	–	3.5 ± 1.1 % ID/g	2.6 ± 0.4 % ID/g	7.5 ± 1.1 % ID/g	8.2 ± 2.1 % ID/g	66.8 ± 10.3 % ID	32.5	95.4	–	high tumor uptake and retention
N[C@@H](CC(Cc1ccc(OCC[18F])nc1)C(=O)O)C(=O)O (stereo partly drawn) [[^18F]-56, 4-({6-[2-(^18F)fluoroethoxy]pyridin-3-yl}methyl)-L-glutamic acid]	–	–	–	–	5.2 ± 1.1 % ID/g	0.7 ± 0.2 % ID/g	0.2 ± 0.03 % ID/g	1.0 ± 0.1 % ID/g	77 ± 6.7 % ID	9.9	25	–	–
N[C@@H](CC(Cc1ccc(OC[C@H](O)[C@@H](O)C[18F])cc1)C(=O)O)C(=O)O (stereo partly drawn) [[^18F]-58, 4-(4-{[(2S,3R)-4-(^18F)fluoro-2,3-dihydroxybutyl]oxy}benzyl)-L-glutamic acid]	4.6 % ID/g	1.7 % ID/g	0.63 % ID/g	0.3 % ID/g	–	–	–	–	–	–	–	–	–
N[C@@H](CC(Cc1ccc(OC(CO)C[18F])cc1)C(=O)O)C(=O)O (stereo partly drawn) [[^18F]-60, 4-(4-{[1-(^18F)fluoro-3-hydroxypropan-2-yl]oxy}benzyl)-L-glutamic acid]	2.2 % ID/g	0.9 % ID/g	2.2 % ID/g	1.0 % ID/g	–	–	–	–	–	–	–	–	–
N[C@@H](CC(Cc1ccc(C[18F])cc1)C(=O)O)C(=O)O (stereo partly drawn) [[^18F]-66, 4-{4-[(^18F)fluoromethyl]benzyl}-L-glutamic acid]	2.9 % ID/g	1.7 % ID/g	1.3 % ID/g	0.7 % ID/g	–	–	–	–	–	–	–	–	–
